In patent US9193884B2, “Ink composition” (Hewlett-Packard Development Company, L.P., priority 2011, dated 2015) one finds Limiting radius, pKa and solubility data, which are given here for five molecules.

SMILES strings stand for the structures.

Series [1] can be described thus: limiting area and limiting radius of fatty acids. It counts as physicochemical.
Text: Fatty acids with one or two cis double bonds have this limiting area; while those with three or more cis double bonds have larger limiting areas. The saturated and trans fatty acids have limiting areas much smaller than this.
The conditions of series [2]: cited from earlier work.
The nature of series [3]: solubility of lithium fatty acid salts. The series is classed as physicochemical.

The molecule `CCCCCCCC/C=C\CCCCCCCC(=O)O` [Oleic, oleic acid] had a Limiting radius in series [1] of 3.61 Å. Also, the pKa – broadly, the pH at which an ionisable group is half protonated – in series [2] is reported as 9.85.

Take `CCCCCCCCCCCC(=O)[O-].[Li+]` [dodecanoate, lithium dodecanoate]: the solubility entry in series [3] was “higher solubility than that of oleic acid”.

`CCCCCCCC/C=C/CCCCCCCC(=O)O` [Elaidic, elaidic acid] showed a Limiting radius in series [1] of 3.24 Å. The pKa in series [2] was 9.95.

In turn, `CCCCC/C=C\C/C=C\CCCCCCCC(=O)O` [Linoleic, linoleic acid] yielded a Limiting radius in series [1] of 3.91 Å.

`CCCCCCCCCCCCCCCCCC(=O)O` [Stearic, stearic acid] registered a Limiting radius in series [1] of 2.52 Å.
